What was measured:
line DC-3F/AD [1] = assay: Flow cytometry: intracellular accumulation of adriamycin by cells of the line DC-3F/AD; assay type: cell-based, Chinese hamster; details: ADR 50 μM, 5 hours
From the text: Also measured was the effect of the compounds on the intracellular concentration of the cytotoxic agent. In effect, the known compounds for reversing MDR act by increasing the intracellular concentration of cytotoxic agent. This effect is the consequence of inhibiting the action of gP 170 which is responsible for the efflux of the drug.
By measuring that fluorescence, it is thus possible to obtain a relative measurement of the intracellular concentration of ADR.
The cells 500×10^3 per ml were exposed simultaneously to ADR at a fixed concentration (50 μM) and to the tested compounds at various concentrations. After 5 hours' incubation, the intracellular accumulation of ADR was evaluated by FCM. […] The analysis of each of the samples was carried out on a total of 10,000 cells at a rate of 1,000 cells per second.
The results were presented in the form of linear histograms of the intracellular ADR fluorescence.
Expression of the results: for each of the histograms the mean fluorescence per channel (MEAN) was determined by the information system of the apparatus. For all experiments:
a negative control (cells without ADR) fixed the autofluorescence threshold.
a positive control (cells with ADR) determined the MEAN value=MN1.
the "test" tubes (cells with ADR and with compound) were used to determine, for each of the compounds and at each of the concentrations, the MEAN values=MN2.
The results are expressed in the form of variations from the mean fluorescence obtained for each of the "test" tubes (MN2) in relation to the mean fluorescence obtained with the positive control (MNl): VAR-MEAN=MN2-MN1. The parameter expressed is thus the increase in ADR fluorescence in the presence of the tested compounds.

resistant line P/388/VCR = assay: Antitumour activity in vivo: increase in antitumour activity of vincristine on murine leukaemia P 388/VCR; set-up: species or system murine; female B6D2Fl mice; details: with vincristine […] i.p., ± sem, no compound: 146 ± 2
From the text: This study was completed by an in vivo study, using a murine leukaemia resistant to vincristine (P/388/VCR) and using the compounds in association with vincristine.
The sensitive parent line P 388 (murine leukaemia) and the sub-line resistant to vincristine, P 388/VCR, were supplied by NCI (Frederick, USA). The tumour cells (10^6 cells) were inoculated on day 0 into the intraperitoneal cavity of female B6D2Fl mice (Iffa Credo, France) weighing from 18 to 20 g (groups of 8 to 10 animals).
Every day for 4 days, starting from day 1, the animals received: […]
30 to 60 minutes later, an administration by the i.p. route of 0.25 mg/kg of vincristine (used as a reference antitumour agent).
The tumour activity is expressed as follows: [formula]
The values are mean values obtained in independent experiments (± sem when n is greater than or equal to 3).

line DC-3F/AD [2] = assay: Cytotoxicity (Microculture Tetrazolium Assay): reversal of resistance to actinomycin D, line DC-3F/AD; assay type: cell-based, Chinese hamster; details: 4 days
From the text: The pharmacological study of the compounds of the present invention consisted first of all in an evaluation in vitro carried out on resistant cells. The parameter measured is the cytotoxicity of the antitumour drug, quantified in the absence and in the presence of the reversing compound.
The cells are distributed on microplates and exposed to the cytotoxic compounds (actinomycin D for line DC-3F/AD and adriamycin for line KB-Al) at 9 concentrations (2 by 2 series dilutions). The compounds tested for their capacity to reverse MDR are added at the same time as the cytotoxic agent.
The cells are then incubated for 4 days. […] The results are expressed as a reversion factor (RF): PG,29 [formula]

[3] = 100 mg/kg i.p. daily for 4 days

Row | SMILES | VAR-MEAN (increase in ADR fluorescence), line DC-3F/AD (line DC-3F/AD [1]; 1.0 μM compound) | VAR-MEAN (increase in ADR fluorescence), line DC-3F/AD (line DC-3F/AD [1]; 5.0 μM compound) | VAR-MEAN (increase in ADR fluorescence), line DC-3F/AD (line DC-3F/AD [1]; 10 μM compound) | VAR-MEAN (increase in ADR fluorescence), line DC-3F/AD (line DC-3F/AD [1]; […] compound) | T/C % (resistant line P/388/VCR; 50 mg/kg i.p. daily for 4 days) [%] | T/C % (resistant line P/388/VCR; [3]) [%] | Reversion factors (cytotoxicity) with the line DC-3F/AD (line DC-3F/AD [2]; 0.5 μM compound) | Reversion factors (cytotoxicity) with the line DC-3F/AD (line DC-3F/AD [2]; 1 μM compound) | Reversion factors (cytotoxicity) with the line DC-3F/AD (line DC-3F/AD [2]; 5 μM compound)
1 | C=CCNc1nc(NCC=C)nc(N2CCC(NCC3c4ccccc4COc4ccccc43)CC2)n1 (racemic) [Example 19, 2,4-diallylamino-6-{4-[((R,S)-6,11-dihydro-dibenzo[b,e]oxepin-11-yl)methylamino]piperidin-1-yl}-1,3,5-triazine] | 13.1 | 25.5 | 25.3 | 22.6 | 167 ± 7 | 184 ± 7 | 3.8 | 63 | 2525
2 | C=CCNc1nc(NCC=C)nc(N2CCC(NCC3c4ccccc4N(C)S(=O)(=O)c4cc(Cl)ccc43)CC2)n1 (racemic) [Example 21, 2,4-diallylamino-6-{4-[(8-chloro-10,10-dioxo-11-methyl-(R,S)-dibenzo[c,f]thiazepin-5-yl)methylamino]piperidin-1-yl}-1,3,5-triazine] | 8.1 | 22.8 | 24.1 | 21.1 | 154 | 148 | 1.2 | 18 | 2804
3 | C=CCNc1nc(NC)nc(N2CCC(NCC3c4ccccc4COc4ccccc43)CC2)n1 (racemic) [Example 28, 2-allylamino-4-methylamino-6-{4-[((R,S)-6,11-dihydro-dibenzo[b,e]oxepin-11-yl)methylamino]piperidin-1-yl}-1,3,5-triazine] | 4.3 | 16.8 | 21.5 | 12.8 | 170 | 171 |  | 18.1 | 600.4
4 | C=CCNc1nc(NCC=C)nc(NCCN2CCC(NCC3c4ccccc4CCc4ccccc43)CC2)n1 [Example 15, 2,4-diallylamino-6-(2-[4-(10,11-dihydro-5H-dibenzo-[a,d]cyclohepten-5-ylmethylamino)piperidin-1-yl]ethylamino}-1,3,5-triazine] | 10.1 | 13.7 | 12.4 | 12.4 |  |  | 0.8 | 1 | 120
5 | C=CCNc1nc(NCC=C)nc(NCC(O)CN2CCC(NC3c4ccccc4CCc4ccccc43)CC2)n1 (stereo not shown) [Example 16, 2,4-diallylamino-6-{3-[4-(10,11-dihydro-5H-dibenzo[a,d]cyclohepten-5-ylamino)piperidin-1-yl]-2-hydroxypropylamino}-1,3,5-triazine] | 9.9 | 10.4 | 12.9 | 11.8 |  |  | 1 | 0.9 | 1.8
6 | C=CCNc1nc(NCC=C)nc(NCC(O)CN2CCC(NCC3c4ccccc4CCc4ccccc43)CC2)n1 (stereo not shown) [Example 17, 2,4-diallylamino-6-{3-[4-(10,11-dihydro-5H-dibenzo[a,d]cyclohepten-5-ylmethylamino)piperidin-1-yl]-2-hydroxypropylamino}-1,3,5-triazine] | 9.4 | 10.5 | 12.6 | 11.0 |  |  | 0.8 | 0.8 | 1.1
7 | C=CCNc1nc(N)nc(N2CCC(NCC3c4ccccc4CCc4ccccc43)CC2)n1 [Example 18, 2-allylamino-4-amino-6-{4-[(10,11-dihydro-5H-dibenzo[a,d]cyclohepten-5-yl)methylamino]piperidin-1-yl}-1,3,5-triazine] | 5.5 | 6.7 | 11.0 | 7.4 |  |  | 1.2 | 3 | 421
8 | C=CCNc1nc(NCC=C)nc(N2CCC(CNC3c4ccccc4CCc4ccccc43)CC2)n1 [Example 23, 2,4-diallylamino-6-{4-[(10,11-dihydro-5H-dibenzo[a,d]cyclohepten-5-yl)aminomethyl]piperidin-1-yl}-1,3,5-triazine] | 10.0 | 14.0 | 20.5 | 14.6 |  |  |  | 1.4 | 173
9 | C=CCNc1nc(NCC=C)nc(N2CCN(NCC3c4ccccc4CCc4ccccc43)CC2)n1 [Example 24, 2,4-diallylamino-6-{4-[(10,11-dihydro-5H-dibenzo[a,d]cyclohepten-5-yl)methylamino]piperazin-1-yl}-1,3,5-triazine] | 12.8 | 21.1 | 28.2 | 16.9 |  |  | 2.5 | 14 | 329
10 | C=CCNc1nc(NCC=C)nc(N2CCN(CC3c4ccccc4CCc4ccccc43)CC2)n1 [Example 25, 2,4-diallylamino-6-{4-[(10,11-dihydro-5H-dibenzo[a,d]cyclohepten-5-yl)methyl]piperazin-1-yl}-1,3,5-triazine] | 9.9 | 17.6 | 24.5 | 14.7 |  |  |  | 13 | 464
11 | C=CCNc1nc(NCC=C)nc(N2CCC(N(C)CC3c4ccccc4CCc4ccccc43)CC2)n1 [Example 30, 2,4-diallylamino-6-{4-[N-((10,11-dihydro-5H-dibenzo[a,d]cyclohepten-5-yl)methyl)-N-methylamino]piperidin-1-yl}-1,3,5-triazine] | 5.9 | 17.8 | 19.0 | 12.3 |  |  |  | 2.3 | 834.0
